The values below come from ChEMBL document CHEMBL4000201, “Benzylideneoxymorphone: A new lead for development of bifunctional mu/delta opioid receptor ligands” (Bioorg Med Chem Lett, 2017).

For experiment [1], the target named is Delta-type opioid receptor (Homo sapiens, UniProt P41143). Kind of experiment: Displacement of [3H]DPDPE from human DOR expressed in CHO cells. Type of experiment: cell-based. A general note: Loss of bound radioactivity is the signal in a displacement assay; it reports binding, not function.
Sequence of Delta-type opioid receptor (P41143 whole entry): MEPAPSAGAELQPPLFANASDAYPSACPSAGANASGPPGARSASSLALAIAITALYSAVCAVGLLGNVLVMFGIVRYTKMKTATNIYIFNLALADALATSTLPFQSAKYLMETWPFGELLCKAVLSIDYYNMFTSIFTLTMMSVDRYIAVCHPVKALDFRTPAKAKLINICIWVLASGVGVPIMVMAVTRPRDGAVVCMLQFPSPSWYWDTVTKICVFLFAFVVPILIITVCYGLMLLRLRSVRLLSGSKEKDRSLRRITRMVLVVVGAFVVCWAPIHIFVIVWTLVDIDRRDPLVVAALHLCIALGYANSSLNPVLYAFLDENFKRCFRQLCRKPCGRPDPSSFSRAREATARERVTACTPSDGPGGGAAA
The target in experiment [2] is Mu-type opioid receptor (Homo sapiens, UniProt P35372). Description: Displacement of [3H]DAMGO from human MOR expressed in CHO cells. Format: cell-based.
Sequence of Mu-type opioid receptor (P35372 whole entry): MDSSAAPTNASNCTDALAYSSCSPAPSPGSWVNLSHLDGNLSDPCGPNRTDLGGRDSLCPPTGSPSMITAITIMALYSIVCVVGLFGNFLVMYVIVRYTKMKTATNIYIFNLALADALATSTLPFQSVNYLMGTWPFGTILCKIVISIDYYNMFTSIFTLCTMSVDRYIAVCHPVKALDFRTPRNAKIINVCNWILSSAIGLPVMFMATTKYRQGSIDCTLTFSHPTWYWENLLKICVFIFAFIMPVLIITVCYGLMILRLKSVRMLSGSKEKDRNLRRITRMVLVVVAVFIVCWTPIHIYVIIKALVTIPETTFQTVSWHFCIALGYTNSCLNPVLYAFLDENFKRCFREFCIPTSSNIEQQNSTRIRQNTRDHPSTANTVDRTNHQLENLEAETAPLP
Experiment [3] concerns Mus musculus. Description: Antinociceptive activity in Swiss-Webster mouse assessed as time required for peak effect at 60 mg/kg, sc after 30 mins measured every 20 mins for 90 mins by hot plate test. Format: functional. Background: Hot-plate and tail-flick tests time the reaction to a heat stimulus.
Experiment [4] has as its system Mus musculus. Kind of experiment: Antinociceptive activity in Swiss-Webster mouse assessed as maximum possible effect at 20 to 60 mg/kg, sc after 30 mins measured every 20 mins for 90 mins by hot plate test. Type of experiment: functional.
Experiment [5] can be described thus: Displacement of [3H]DPDPE from DOR in guinea pig brain membranes measured after 60 mins by scintillation counting method. Format: cell membranes, Cavia porcellus, Membrane.

The term Ki denotes a measure of affinity in units of concentration, obtained from inhibition or displacement.

As for `O=C1/C(=C/c2ccccc2)C[C@@]2(O)[C@H]3Cc4ccc(O)c5c4[C@@]2(CCN3CCCc2ccccc2)[C@H]1O5`, the Ki in experiment [1] is 168 nM; in experiment [2], 313 nM.
As for `CN1CC[C@]23c4c5ccc(O)c4O[C@H]2C(=O)/C(=C/c2ccccc2)C[C@@]3(O)[C@H]1C5`, the inhibition constant (Ki) in experiment [1] amounted to 14.4 nM; in experiment [2], 17.5 nM. Moreover, the Time in experiment [3] amounted to 50 min. The MPE in experiment [4] is listed as 40%.
For the compound `O=C1/C(=C/c2ccccc2)C[C@@]2(O)[C@H]3Cc4ccc(O)c5c4[C@@]2(CCN3CC2CC2)[C@H]1O5` [BNTX], in experiment [5], the inhibitory constant (Ki) amounted to 6.2 nM.
